Results published in patent US20230219904A1 (SYNGENTA CROP PROTECTION AG, priority 2020, published 2023).

Columns and labels:
Assay type in all cases: in vivo
Conditions in all cases: evaluated after 13 days
[1] = system: Abutilon theophrasti (ABUTH); assay: Pre-emergence herbicidal glasshouse test (Table B1)
In short: (§1)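 Application rate was 500 g/h unless otherwise indicated, as a spray prepared from acetone/water (50:50) containing 0.5% Tween 20. Treatment followed one day (pre-emergence) or 8 days (post-emergence) of glasshouse growth, and percentage plant damage was assessed 13 days later on a 1–5 scale.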

[2] = system: Amaranthus retoflexus (AMARE); assay: as above
In short: as §1

[3] = system: Echinochloa crus-galh (ECHCG); assay: as above
In short: as §1

[4] = system: Ipomoea hederacea (IPOHE); assay: as above
In short: as §1

[5] = system: Setaria faberi (SETFA); assay: as above
In short: as §1

[6] = system: Abutilon theophrasti (ABUTH); assay: Post-emergence herbicidal glasshouse test (Table B1)
In short: as §1

[7] = system: Amaranthus retoflexus (AMARE); assay: as above
In short: as §1

[8] = system: Echinochloa crus-galh (ECHCG); assay: as above
In short: as §1

[9] = system: Ipomoea hederacea (IPOHE); assay: as above
In short: as §1

[10] = system: Setaria faberi (SETFA); assay: as above
In short: as §1

Compound | PRE Application ABUTH, percentage damage on five-point scale ([1]; applied at 500 g/h) | PRE Application AMARE, percentage damage on five-point scale ([2]; applied at 500 g/h) | PRE Application ECHCG, percentage damage on five-point scale ([3]; applied at 500 g/h) | PRE Application IPOHE, percentage damage on five-point scale ([4]; applied) | PRE Application SETFA, percentage damage on five-point scale ([5]; applied at 500 g/h) | POST Application ABUTH, percentage damage on five-point scale ([6]; applied at 500 g/h) | POST Application AMARE, percentage damage on five-point scale ([7]; applied at 500 g/h) | POST Application ECHCG, percentage damage on five-point scale ([8]; applied at 500 g/h) | POST Application IPOHE, percentage damage on five-point scale ([9]; applied at 500 g/h) | POST Application SETFA, percentage damage on five-point scale ([10]; applied at 500 g/h) | PRE Application ABUTH, percentage damage on five-point scale ([1]; applied at 125 g/ha) | PRE Application AMARE, percentage damage on five-point scale ([2]; applied at 125 g/ha) | PRE Application ECHCG, percentage damage on five-point scale ([3]; applied at 125 g/ha) | PRE Application IPOHE, percentage damage on five-point scale ([4]; applied at 125 g/ha) | PRE Application SETFA, percentage damage on five-point scale ([5]; applied at 125 g/ha) | POST Application ABUTH, percentage damage on five-point scale ([6]; applied at 125 g/ha) | POST Application AMARE, percentage damage on five-point scale ([7]; applied at 125 g/ha) | POST Application ECHCG, percentage damage on five-point scale ([8]; applied at 125 g/ha) | POST Application IPOHE, percentage damage on five-point scale ([9]; applied at 125 g/ha) | POST Application SETFA, percentage damage on five-point scale ([10]; applied at 125 g/ha)
CCn1nnnc1NC(=O)c1ccc(OC(F)(F)F)c(NC(=O)C2CC2)c1Cl [Compound 1.117] | 5 (5=80-100%) | 5 (5=80-100%) | 5 (5=80-100%) | 4 (4=60-79%) | 4 (4=60-79%) | 5 (5=80-100%) | 5 (5=80-100%) | 5 (5=80-100%) | 5 (5=80-100%) | 5 (5=80-100%) |  |  |  |  |  |  |  |  |  | 
CCn1nnnc1NC(=O)c1ccc(OC(F)(F)F)c(NC(=O)c2ccccn2)c1Cl [Compound 1.128] | 4 (4=60-79%) | 5 (5=80-100%) | 3 (3=40-59%) | 1 (1=0-19%) | 1 (1=0-19%) | 5 (5=80-100%) | 5 (5=80-100%) | 5 (5=80-100%) | 5 (5=80-100%) | 5 (5=80-100%) |  |  |  |  |  |  |  |  |  | 
CCC(CC)C(=O)Nc1c(OC(F)(F)F)ccc(C(=O)Nc2nnnn2C)c1Cl [Compound 1.104] | 4 (4=60-79%) | 5 (5=80-100%) | 5 (5=80-100%) | 2 (2=20-39%) | 3 (3=40-59%) | 5 (5=80-100%) | 5 (5=80-100%) | 5 (5=80-100%) | 5 (5=80-100%) | 5 (5=80-100%) |  |  |  |  |  |  |  |  |  | 
CC(C)CC(=O)Nc1c(OC(F)(F)F)ccc(C(=O)Nc2nnnn2C)c1Cl [Compound 1.008] | 5 (5=80-100%) | 5 (5=80-100%) | 5 (5=80-100%) | 3 (3=40-59%) | 4 (4=60-79%) | 5 (5=80-100%) | 5 (5=80-100%) | 5 (5=80-100%) | 5 (5=80-100%) | 5 (5=80-100%) |  |  |  |  |  |  |  |  |  | 
CCOC(C)C(=O)Nc1c(OC(F)(F)F)ccc(C(=O)Nc2nnnn2C)c1Cl (stereo not shown) [Compound 1.065] |  |  |  |  |  |  |  |  |  |  | 5 (5=80-100%) | 5 (5=80-100%) | 5 (5=80-100%) | 5 (5=80-100%) | 5 (5=80-100%) | 5 (5=80-100%) | 5 (5=80-100%) | 5 (5=80-100%) | 5 (5=80-100%) | 5 (5=80-100%)
CCC(=O)N(CC)c1c(OC(F)F)ccc(C(=O)Nc2nnnn2C)c1Cl [Compound 1.021] |  |  |  |  |  |  |  |  |  |  | 5 (5=80-100%) | 3 (3=40-59%) | 3 (3=40-59%) | 3 (3=40-59%) | 3 (3=40-59%) | 4 (4=60-79%) | 3 (3=40-59%) | 4 (4=60-79%) | 3 (3=40-59%) | 4 (4=60-79%)
CCC(=O)Nc1c(OC(F)F)ccc(C(=O)Nc2nnnn2C)c1Cl [Compound 1.022] |  |  |  |  |  |  |  |  |  |  | 5 (5=80-100%) | 5 (5=80-100%) | 5 (5=80-100%) | 4 (4=60-79%) | 5 (5=80-100%) | 5 (5=80-100%) | 5 (5=80-100%) | 5 (5=80-100%) | 4 (4=60-79%) | 5 (5=80-100%)
CCn1nnnc1NC(=O)c1ccc(OC(F)(F)C(F)F)c(NC(=O)C2CC2)c1Cl [Compound 1.102] | 4 (4=60-79%) | 5 (5=80-100%) | 5 (5=80-100%) | 1 (1=0-19%) | 4 (4=60-79%) | 5 (5=80-100%) | 5 (5=80-100%) | 5 (5=80-100%) | 5 (5=80-100%) | 5 (5=80-100%) |  |  |  |  |  |  |  |  |  | 
CCn1nnnc1NC(=O)c1ccc(OC(F)(F)F)c(NC(=O)C(F)F)c1Cl [Compound 1.122] |  |  |  |  |  |  |  |  |  |  | 3 (3=40-59%) | 5 (5=80-100%) | 4 (4=60-79%) | 1 (1=0-19%) | 3 (3=40-59%) | 4 (4=60-79%) | 5 (5=80-100%) | 4 (4=60-79%) | 2 (2=20-39%) | 3 (3=40-59%)
Cn1nnnc1NC(=O)c1ccc(OC(F)(F)F)c(NC(=O)C2CC2)c1Cl [Compound 1.006, 2-chloro-3-(cyclopropanecarbonylamino)-N-(1-methyltetrazol-5-yl)-4-(trifluoromethoxy)benzamide] | 5 (5=80-100%) | 5 (5=80-100%) | 5 (5=80-100%) | 2 (2=20-39%) | 5 (5=80-100%) | 5 (5=80-100%) | 5 (5=80-100%) | 5 (5=80-100%) | 5 (5=80-100%) | 5 (5=80-100%) |  |  |  |  |  |  |  |  |  | 
